Measured values reported in patent US20050222146A1, “N-substituted-n-sulfonylaminocyclopropane compounds and pharmaceutical use thereof” (priority 2003, published 2005).

How the values were obtained:
Format in all cases: biochemical
aggrecanase-1 = biological target: T1, aggrecanase-1 (Homo sapiens, UniProt O75173); assay: Aggrecanase-1 inhibitory action, Particle Assay (GAG release from aggrecan-containing polyacrylamide particles); details: 37° C. for 15 hr, read-out: Experimental Example 1 IC50 AG1
T1 sequence (O75173 213-837): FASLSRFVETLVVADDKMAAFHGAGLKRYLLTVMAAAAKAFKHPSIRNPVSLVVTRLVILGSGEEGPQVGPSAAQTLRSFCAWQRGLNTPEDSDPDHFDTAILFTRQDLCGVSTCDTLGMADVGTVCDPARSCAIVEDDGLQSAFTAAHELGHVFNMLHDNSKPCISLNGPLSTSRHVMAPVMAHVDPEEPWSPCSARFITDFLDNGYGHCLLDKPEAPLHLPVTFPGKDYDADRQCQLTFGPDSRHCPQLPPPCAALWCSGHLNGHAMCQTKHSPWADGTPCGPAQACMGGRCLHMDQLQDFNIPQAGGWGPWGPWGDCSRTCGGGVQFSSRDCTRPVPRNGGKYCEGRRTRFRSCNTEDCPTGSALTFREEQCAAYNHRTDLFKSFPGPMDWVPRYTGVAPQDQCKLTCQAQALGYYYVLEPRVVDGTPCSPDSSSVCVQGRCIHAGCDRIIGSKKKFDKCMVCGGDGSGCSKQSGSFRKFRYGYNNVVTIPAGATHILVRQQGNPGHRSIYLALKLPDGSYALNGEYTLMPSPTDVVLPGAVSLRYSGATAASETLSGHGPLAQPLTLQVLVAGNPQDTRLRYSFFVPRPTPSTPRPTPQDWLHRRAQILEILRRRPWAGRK
Procedure, shortened: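 Enzyme and test compound (DMSO dilutions) in Tris-HCl buffer incubated with aggrecan-containing polyacrylamide particles at 37 °C for 15 hr. Released GAG in supernatant quantified with 1,9-dimethylmethylene blue at 595 nm against whale chondroitin sulfate standard; % inhibition versus enzyme-free and inhibitor-free wells gives IC50 (μM).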

MMP-1 = biological target: T2, MMP-1 (Homo sapiens, UniProt P03956); assay: MMP-1 inhibitory action, Type I collagen Activity Measurement kit (FITC-labeled collagen type I); details: 37° C. for 3 hr, read-out: Experimental Example 2 IC50 MMP1
T2 sequence (P03956 100-469): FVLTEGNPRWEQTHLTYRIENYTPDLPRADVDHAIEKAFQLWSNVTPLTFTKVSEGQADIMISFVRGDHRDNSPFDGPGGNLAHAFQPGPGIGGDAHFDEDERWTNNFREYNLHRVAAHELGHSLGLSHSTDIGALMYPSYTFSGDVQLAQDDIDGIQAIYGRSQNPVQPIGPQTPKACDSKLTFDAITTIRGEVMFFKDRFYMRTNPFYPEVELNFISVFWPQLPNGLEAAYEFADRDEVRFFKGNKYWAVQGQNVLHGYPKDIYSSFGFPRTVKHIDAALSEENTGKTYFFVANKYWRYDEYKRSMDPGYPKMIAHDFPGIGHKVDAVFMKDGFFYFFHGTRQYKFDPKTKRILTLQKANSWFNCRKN

Recombinant Human MMP-13 = biological target: T3, Recombinant Human MMP-13 (Homo sapiens, UniProt P45452); assay: MMP-13 inhibition, MMP-13 specific fluorescent substrate with quencher; details: synthetic substrate 7-MCA-Pro-CHA-Gly-NVal-His-Ala-DPA, 25° C. for 1 h; read-out: Experimental Example 3 IC50 MMP13
T3 construct: purchased R&D systems 511-MM
Experimental: Inhibitory activity of tested compounds on MMP-13 was measured using MMP-13 specific fluorescent substrate with quencher.
The enzyme and substrate were diluted with Tris-HCl buffer, and test compounds were diluted with dimethyl sulfoxide (DMSO).
Test compounds and the enzyme (Recombinant Human MMP-13: R&D systems, 511-MM) were added into 96-well plate. The reaction was initiated by adding synthetic substrate (7-MCA-Pro-CHA-Gly-NVal-His-Ala-DPA: enzyme systems products, Met-06) into the plate. After incubation at 25° C. for 1 h, the reaction was terminated by addition of reaction terminating solution containing acetic acid. Fluorescence intensity of each well was measured (Ex: 325 nm, Em: 405 nm) and the MMP-13 inhibitory activity of the compound in each well (%) was calculated based on the values of enzyme-free well and inhibitor-free well. The inhibitory activity of the compound was represented as IC50 (μM).

Row | IC50 (aggrecanase-1) [nM] | IC50 (MMP-1) [nM] | IC50 (Recombinant Human MMP-13) [nM] | SMILES
1 | < 1000 | ≥ 10000 | ≥ 1000 | O=C(O)c1cnn(CCN([C@]2(C(=O)O)C[C@H]2c2ccccc2)S(=O)(=O)N2CCN(c3ccc(C(F)(F)F)cc3)CC2)c1 (relative stereo) [Example 2-05, 1-(2-{((1R*,2S*)-1-Carboxy-2-phenyl-cyclopropyl)-[4-(4-trifluoromethyl-phenyl)-piperazine-1-sulfonyl]-amino}-ethyl)-1H-pyrazole-4-carboxylic acid]
2 | ≥ 1000 | ≥ 10000 | ≥ 10000 | Nc1nnn(CCN([C@]2(C(=O)O)C[C@H]2c2ccccc2)S(=O)(=O)N2CCN(c3ccc(C(F)(F)F)cc3)CC2)n1 (relative stereo) [Example 2-06, (1R*,2S*)-1-{[2-(5-Amino-tetrazol-2-yl)-ethyl]-[4-(4-trifluoromethyl-phenyl)-piperazine-1-sulfonyl]-amino}-2-phenyl-cyclopropanecarboxylic acid]
3 | ≥ 1000 | ≥ 10000 | ≥ 10000 | Nc1nnnn1CCN([C@]1(C(=O)O)C[C@H]1c1ccccc1)S(=O)(=O)N1CCN(c2ccc(C(F)(F)F)cc2)CC1 (relative stereo) [Example 2-07, (1R*,2S*)-1-{[2-(5-Amino-tetrazol-1-yl)-ethyl]-[4-(4-trifluoromethyl-phenyl)-piperazine-1-sulfonyl]-amino}-2-phenyl-cyclopropanecarboxylic acid]
4 | ≥ 1000 | ≥ 10000 | ≥ 10000 | CN([C@]1(C(=O)O)C[C@@]1(CN1CCOCC1)c1ccccc1)S(=O)(=O)c1ccc(-c2cc(C(F)(F)F)on2)s1 (relative stereo) [Example 2-24, (1R*,2S*)-1-{Methyl-[5-(5-trifluoromethyl-isoxazol-3-yl)-thiophene-2-sulfonyl]-amino}-2-morpholin-4-ylmethyl-2-phenyl-cyclopropanecarboxylic acid]
5 | ≥ 1000 | ≥ 10000 | ≥ 10000 | CN([C@@]1(C(=O)O)C[C@@H]1c1ccccc1)S(=O)(=O)c1ccc(-c2ccc(Cl)cc2)s1 [Example 2-03, (1S,2R)-1-{[5-(4-Chloro-phenyl)-thiophene-2-sulfonyl]-methyl-amino}-2-phenyl-cyclopropanecarboxylic acid]
6 | ≥ 1000 | ≥ 10000 | ≥ 1000 | O=C(O)C1(N(CCO)S(=O)(=O)c2ccc(-c3ccc(Cl)cc3)s2)CC1c1ccccc1 (stereo not drawn) [Example 2-04, (1R*,2S*)-1-[[5-(4-Chloro-phenyl)-thiophene-2-sulfonyl]-(2)-hydroxy-ethyl)-amino]-2-phenyl-cyclopropanecarboxylic acid]
7 | < 100 | ≥ 10000 | ≥ 10000 | O=C(O)CN([C@]1(C(=O)O)C[C@H]1c1ccccc1)S(=O)(=O)c1ccc(-c2ccc(Cl)cc2)s1 [Example 2-08, (1R,2S)-1-{Carboxymethyl-[5-(4-chloro-phenyl)-thiophene-2-sulfonyl]-amino}-2-phenyl-cyclopropanecarboxylic acid]
8 | < 100 | ≥ 10000 | ≥ 1000 | O=C(O)CN([C@]1(C(=O)O)C[C@H]1c1ccccc1)S(=O)(=O)c1ccc(-c2cc(C(F)(F)F)on2)s1 [Example 2-09, (1R,2S)-1-{Carboxymethyl-[5-(5-trifluoromethyl-isoxazol-3-yl)-thiophene-2-sulfonyl]-amino}-2-phenyl-cyclopropanecarboxylic acid]
9 | < 1000 | ≥ 10000 | ≥ 10000 | O=C(O)CN([C@@]1(C(=O)O)C[C@@H]1c1ccccc1)S(=O)(=O)c1ccc(-c2ccc(Cl)cc2)s1 [Example 2-10, (1S,2R)-1-{Carboxymethyl-[5-(4-chloro-phenyl)-thiophene-2-sulfonyl]-amino}-2-phenyl-cyclopropanecarboxylic acid]
10 | ≥ 1000 | ≥ 10000 | ≥ 10000 | CN1CCN(C(=O)CN([C@@]2(C(=O)O)C[C@@H]2c2ccccc2)S(=O)(=O)c2ccc(-c3ccc(Cl)cc3)s2)CC1 [Example 2-11, (1S,2R)-1-{[5-(4-Chloro-phenyl)-thiophene-2-sulfonyl]-[2-(4-methyl-piperazin-1-yl)-2-oxo-ethyl]-amino}-2-phenyl-cyclopropanecarboxylic acid]
11 | ≥ 1000 | ≥ 10000 | ≥ 1000 | CN([C@]1(C(=O)O)C[C@H]1c1ccccc1)S(=O)(=O)c1ccc(-c2ccc(Cl)cc2)s1 [Example 2-12, (1R,2S)-1-{[5-(4-Chloro-phenyl)-thiophene-2-sulfonyl]-methyl-amino}-2-phenyl-cyclopropanecarboxylic acid]
12 | ≥ 1000 | ≥ 10000 | ≥ 1000 | CN1CCN(C(=O)OCCN([C@]2(C(=O)O)C[C@H]2c2ccccc2)S(=O)(=O)c2ccc(-c3ccc(Cl)cc3)s2)CC1 [Example 2-15, 4-Methyl-piperazine-1-carboxylic acid 2-{((1R,2S)-1-carboxy-2-phenyl-cyclopropyl)-[5-(4-chloro-phenyl)-thiophene-2-sulfonyl]-amino}-ethyl ester]
13 | ≥ 1000 | ≥ 10000 | ≥ 1000 | O=C(CN([C@]1(C(=O)O)C[C@H]1c1ccccc1)S(=O)(=O)c1ccc(-c2ccc(Cl)cc2)s1)N1CCOCC1 [Example 2-16, (1R,2S)-1-[[5-(4-Chloro-phenyl)-thiophene-2-sulfonyl]-(2-morpholin-4-yl-2-oxo-ethyl)-amino]-2-phenyl-cyclopropanecarboxylic acid]

Row | SMILES | IC50 (aggrecanase-1) [nM] | IC50 (MMP-1) [nM] | IC50 (Recombinant Human MMP-13) [nM]
14 | O=C(O)[C@@]12C[C@@]1(c1ccccc1)COCN2S(=O)(=O)c1ccc(-c2ccc(Cl)cc2)s1 (relative stereo) [Example 2-01, (1R*,6S*)-2-[5-(4-chlorophenyl)-thiophene-2-sulfonyl]-6-phenyl-4-oxa-2-aza-bicyclo[4.1.0]heptane-1-carboxylic acid] | ≥ 1000 | ≥ 10000 | ≥ 1000
15 | O=C(O)[C@@]12C[C@]1(c1ccccc1)CCCN2S(=O)(=O)c1ccc(-c2ccc(Cl)cc2)s1 (relative stereo) [Example 2-13, (1R*,6S*)-2-[5-(4-Chloro-phenyl)-thiophene-2-sulfonyl]-6-phenyl-2-aza-bicyclo[4.1.0]heptane-1-carboxylic acid] | < 1000 | ≥ 10000 | ≥ 1000
16 | O=C(O)[C@@]12C[C@]1(c1ccccc1)CCCN2S(=O)(=O)c1ccc(-c2cc(C(F)(F)F)on2)s1 (relative stereo) [Example 2-22, (1R*,6S*)-6-Phenyl-2-[5-(5-trifluoromethyl-isoxazol-3-yl)-thiophene-2-sulfonyl]-2-aza-bicyclo[4.1.0]heptane-1-carboxylic acid] | ≥ 1000 | ≥ 10000 | ≥ 1000
17 | O=C(O)[C@@]12C[C@]1(c1ccccc1)CCN2S(=O)(=O)c1ccc(-c2ccc(Cl)cc2)s1 (relative stereo) [Example 2-23, (1R*,5S*)-2-[5-(4-Chloro-phenyl)-thiophene-2-sulfonyl]-5-phenyl-2-aza-bicyclo[3.1.0]hexane-1-carboxylic acid] | ≥ 1000 | ≥ 10000 | ≥ 1000
18 | O=C(O)[C@@]12C[C@]1(c1ccccc1)COC(CO)CN2S(=O)(=O)c1ccc(-c2ccc(Cl)cc2)s1 (relative stereo) [Example 2-26, (1R*,7R*)-2-[5-(4-Chloro-phenyl)-thiophene-2-sulfonyl]-4-hydroxymethyl-7-phenyl-5-oxa-2-aza-bicyclo[5.1.0]octane-1-carboxylic acid] | ≥ 1000 | ≥ 10000 | ≥ 1000
